# Measurements as given in patent US4923882A, “Novel amine derivatives, salts thereof and an anti-ulcer agent containing the same” (Toyama Chemical Co., Ltd., priority 1982, dated 1990).
# pIC50: −log10 of the molar value.
# Legend:
# [1] = test system: isolated guinea pig atrium; assay: Effect on isolated guinea pig atrium (histamine-induced heart rate); set-up: species or system Hartley guinea pig; conditions: for Potency ratio: Cimetidine = 1; for pIC50: right atrium, 5×10^-6 M histamine, 30° C., read-out: ID50 (the source's name)
# Procedure: Hartley guinea pig (male, 300 to 400 g) was killed by blood-letting, immediately after which the heart was isolated, and the right atrium was separated in a Krebs-Henseleit solution and used as a preparation. […] The preparation was trained in a bath fluid, and after the heart rate became constant, 5×10^-6 M of histamine was administered. After the heart rate became constant, each drug was administered cumulatively.
# The inhibition percentage was determined from the following equation: [formula] HRmin : heart rate before the administration of histamine HRmax : heart rate after the administration of histamine
# HRx : heart rate at the time of the administration of each drug.
# The number of experiments were five for each dose.
# gastric acid secretion [2] = assay: Inhibitory effect on gastric acid secretion, pylorus ligation method (histamine); type: in vivo, Wistar strain rats; conditions: Rattus norvegicus, oral, histamine 25 mg/kg s.c., read-out: Inhibition percentage (gastric acid secretion)
# Procedure: Five to six Wistar strain rats (male, 190 to 230 g) per group were starved for 35 hours, after which each drug was orally administered, and after 2 hours, the pylorus of each rat was ligated under ether anesthesia. […] After 3 hours, each rat was killed, after which the cardiac portion was ligated, and the stomach was removed. After 1 ml of distilled water was injected into the stomach, the gastric juice was collected by centrifugation and its volume was measured. The acidity of the gastric juice was measured by titrating 1 ml of the gastric juice with a 0.1N aqueous sodium hydroxide solution, taking pH 7.0 as the end-point. Physiological saline was administered to a control group.
# The inhibition percentage of gastric acid secretion was determined from the following equation: [formula]
# gastric acid secretion [3] = assay: Inhibitory effect on gastric acid secretion, perfused stomach preparation of anesthetized rat (histamine stimulated); type: in vivo, Wistar strain rats; conditions: intravenous; for ED100: Rattus norvegicus, cumulative, histamine 30 μg/kg/min, read-out: Dose for complete inhibition; for Duration: time from complete inhibition until pH of perfusate became 4
# Procedure: (i) Perfused stomach preparation of anesthetized rat [according to M. N. Ghosh and H. O. Schild: Brit. J. Pharmacol. 13, 54 (1958)]
# Wistar strain rats (male, 200 to 250 g) starved for 18 hours were anesthetized with urethane and then subjected to laparotomy, after which the forestomach region of the stomach of each rat was incised. The whole interior of the stomach was sufficiently washed with physiological saline, and the cut edges were sutured. A silicon tube was inserted into the stomach to a length of about 5 mm from the duodenum side and fixed. Subsequently, the stomach was perfused with physiological saline adjusted to a pH of about 10 with an aqueous sodium hydroxide solution at a constant rate (1 ml/min) through an oral sonde, and the change in pH of the perfusate which had flowed out through the silicone tube was continuously recorded. During the perfusion, histamine (30 μg/kg/min) was continuously injected, as an agent for stimulating gastric acid secretion, through the femoral vein at a rate of 0.3 ml/min. Each drug was intravenously administered when the acid secretion became almost constant (pH 3.3±0.2), and cumulatively administered when the inhibition of acid secretion at each dose reached a plateau.
# The number of experiments was three for each dose.
# [4] = test system: Stress ulcer induced by water-immersion; assay: Anti-ulcer activity: Stress ulcer induced by water-immersion; type: in vivo, Wistar rats; conditions: for Inhibition percentage / ED50: oral; for Potency ratio: Cimetidine = 1; for ED50: Rattus norvegicus, 15 h, water-immersion stress ulcer, read-out: ID50 (the source's name)
# Procedure: (iii) Stress ulcer induced by water-immersion
# An experiment was carried out according to the method of Takagi et al. [K. Takagi et al., Jap.
# Six Wistar rats (male, 230 to 280 g) per group were starved for 24 hours, after which each drug was orally administered. After 30 minutes, the rats were placed in stress cage, immersed in water at 23° C. to the depth of xiphoid, and allowed to stand therein for 15 hours. Thereafter, the stomach of each rat was removed and then fixed with 3% formalin, after which the areas of the ulcers formed were measured under the binocular stereoscopic microscope (10×), and the sum total of the areas was taken as the ulcer index. To a control group was administered 0.5% Tween 80 physiological saline.
# The inhibition percentage was determined from the following equation: [formula]
# Indomethacin ulcer = assay: Anti-ulcer activity: Indomethacin ulcer; type: in vivo, Wistar strain rats; conditions: for Potency ratio: Cimetidine = 1; for ED50: 5 h, Indomethacin ulcer, read-out: ID50 (the source's name)
# Procedure: Six Wistar strain rats (male, 200 to 250 g) per group were starved for 24 hours, after which each drug was orally administered, and after 30 minutes, Indomethacin was injected subcutaneously at a dose of 30 mg/kg. After 5 hours, each rat was killed, and the stomach was removed and fixed with 3% formalin, after which the lengths of ulcers formed in the stomach was measured under the binocular stereoscopic microscope (10×), and the sum total of the lengths was taken as the ulcer index. To a control group was administered 0.5% Tween 80 physiological saline. The inhibition percentage was determined from the following equation: [formula]
# [5] = test system: Mepirizole-induced duodenal ulcer; assay: Anti-ulcer activity: Mepirizole-induced duodenal ulcer; type: in vivo, Wistar strain rats; conditions: for Inhibition percentage / ED50: oral; for Potency ratio: Cimetidine = 1; for ED50: Rattus norvegicus, 18 h, mepirizole-induced duodenal ulcer, read-out: ID50 (the source's name)
# Procedure: (ii) Mepirizole-induced duodenal ulcer
# A test was carried out according to the method of Okabe et al. [S. Okabe et al., Gastrcenterology, 80, 1241 (1981)].
# Six Wistar strain rats (male, 200 to 250 g) per group were starved for 24 hours, after which each drug was orally administered, and after 30 minutes, mepirizole was injected subcutaneously at a dose of 200 mg/kg. After 18 hours, the stomach and duodenum were removed and fixed with 3% formalin, after which the areas and depths of the ulcers formed in the duodenum were measured under the binocular stereoscopic microscope (10×). The scores were given in 7 grades depending on the areas and depths of the ulcers, and the sum total of the scores was taken as the ulcer index. The scores were given as follows:
# That is to say, the score is 0 at an ulcer area of 0 to 0.2 mm^2, 1 at 0.2 to 1.0 mm^2, 2 at 1 to 3 mm^2, 3 at 3 to 6 mm^2, 4 at 6 to 10 mm^2,5 at 10 mm^2 or more, the ulcer in the condition immediately before perforation is scored as 6, and the ulcer which had caused perforation is scored as 7.
# (§1) To a control group was administered 0.5% Tween 80 physiological saline. The inhibition percentage was determined from the following equation: [formula]
# Reserpine ulcer = assay: Anti-ulcer activity: Reserpine ulcer; type: in vivo, Wistar strain rats; conditions: oral; for ED50: Rattus norvegicus, 18 h, reserpine ulcer, read-out: ID50 (the source's name)
# Procedure: An experiment was carried out according to the method of Adami et al. [E. Adami et al., Arch. int.
# Ten Wistar strain rats (male, 180 to 200 g) per group were starved for 30 hours, after which each drug was orally administered, and after 1 hour, reserpine was injected subcutaneously at a dose of 10 mg/kg. After 18 hours, the stomach was removed and fixed with 3% formalin, and thereafter the lengths of the ulcers formed in the stomach were measured with callipers. The measured values were converted to the scores described below, and the sum total of the scores was taken as the ulcer index.
# That is to say, 1 to 5 pin point ulcers are scored as 1, 6 or more pin point ulcers are scored as 2, ulcers of 1 mm or less in length are scored as 1, ulcers of 1 to 2 mm in length are scored as 2, ulcers of 2 to 4 mm in length are scored as 4, and ulcers of 4 mm or more in length are scored as 8.
# as §1
# [6] = Rattus norvegicus, oral, read-out: Inhibition percentage
Structure (SMILES),Potency ratio [1],pIC50 [1],inhibition in vivo at 3 mg/kg (gastric acid secretion [2]) [%],ED100 (gastric acid secretion [3]) [mg/kg],Duration (gastric acid secretion [3]) [min],Inhibition percentage ([4]; 1 mg/kg) [%],Inhibition percentage ([4]; 3 mg/kg) [%],Potency ratio [4],ED50 [4] [mg/kg],Potency ratio (Indomethacin ulcer),"ED50 (Indomethacin ulcer; Rattus norvegicus, oral) [mg/kg]",inhibition in vivo at 1 mg/kg (Indomethacin ulcer; [6]) [%],inhibition in vivo at 1 mg/kg (gastric acid secretion [2]) [%],Inhibition percentage (Reserpine ulcer; 1 mg/kg) [%],Inhibition percentage (Reserpine ulcer; 3 mg/kg) [%],ED50 (Reserpine ulcer) [mg/kg],other results
"O=[N+]([O-])C=C(NCCCOc1cccc(CN2CCCCC2)c1)NCC(O)c1ccc2c(c1)OCO2 (stereo not shown) [compound 17, N-[2-hydroxy-2-(3,4-methylenedioxyphenyl)ethyl]-2-nitro-N'-[3-(3-piperidinomethylphenoxy)propyl]-1,1-ethenediamine]",15.4,6.66,70,0.15,> 280,–,–,–,–,–,–,–,–,–,–,–,–
"CN(C)Cc1ccc(CSCCNC(=C[N+](=O)[O-])NCC(O)c2ccc(O)cc2)o1 (stereo not shown) [compound 3, N-{2-[[5-(dimethylamino)methyl-2-furyl]methylthio]ethyl}-N'-[2-hydroxy-2-(4-hydroxyphenyl)ethyl]-2-nitro-1,1-ethenediamine]",14.7,6.64,–,0.1,155,12,73,9.0,1.72,8.1,3.4,20,–,–,–,–,Inhibition percentage ([4]; 10 mg/kg): 83%; inhibition in vivo at 3 mg/kg (Indomethacin ulcer; [6]): 51%; inhibition in vivo at 10 mg/kg (Indomethacin ulcer; [6]): 71%; Inhibition percentage ([5]; 1 mg/kg): 12%; Inhibition percentage ([5]; 3 mg/kg): 49%; Inhibition percentage ([5]; 10 mg/kg): 97%; Potency ratio [5]: 55.9; ED50 [5]: 2.9 mg/kg
"Cc1cccc(C(O)CNC(=C[N+](=O)[O-])NCCSCc2cc(C)c(CN(C)C)s2)c1 (stereo not shown) [compound 29, N-{2-[[5-(dimethylamino)methyl-4-methyl-2-thienyl]methylthio]ethyl}-N'-[2-hydroxy-2-(3-methylphenyl)ethyl]-2-nitro-1,1-ethenediamine]",–,–,–,0.3,> 177,37,78,11.1,1.4,31.3,0.88,57,56,21,41,4.7,"inhibition in vivo at 0.3 mg/kg (Indomethacin ulcer; Rattus norvegicus, 0.3 mg/kg, oral, read-out: Inhibition percentage): 8%"
"CCc1ccc(C(O)CNC(=C[N+](=O)[O-])NCCSCc2cc(C)c(CN(C)C)s2)cc1 (stereo not shown) [compound 42, N-{2-[[5-(dimethylamino)methyl-4-methyl-2-thienyl]methylthio]ethyl}-N'-[2-(4-ethylphenyl)-2-hydroxyethyl]-2-nitro-1,1-ethenediamine]",14.1,6.63,–,–,–,–,–,–,–,–,–,–,57,–,–,–,–
"Cc1cc(CSCCNC(=C[N+](=O)[O-])NCC(O)c2cccc(C(F)(F)F)c2)sc1CN(C)C (stereo not shown) [compound 33, N-{2-[[5-(dimethylamino)methyl-4-methyl-2-thienyl]methylthio]ethyl}-N'-[2-hydroxy-2-(3-trifluoromethylphenyl)ethyl]-2-nitro-1,1-ethenediamine]",–,–,–,0.3,> 240,32,75,9.8,1.58,–,–,–,55,42,68,1.4,–
"CNC(=C[N+](=O)[O-])NCCSCc1ccc(CN(C)C)o1 [Ranitidine, reference compound]",–,–,17,0.5,92,–,7,2.4,6.4,1.8,15.5,–,–,–,–,–,"Inhibition percentage ([4]; 10 mg/kg): 80%; inhibition in vivo at 10 mg/kg (Indomethacin ulcer; [6]): 18%; inhibition in vivo at 30 mg/kg (Indomethacin ulcer; Rattus norvegicus, 30 mg/kg, oral, read-out: Inhibition percentage): 98%; inhibition in vivo at 10 mg/kg (gastric acid secretion [2]; 10 mg/kg): 56%; inhibition in vivo at 30 mg/kg (gastric acid secretion [2]; 30 mg/kg): 91%; Inhibition percentage (Reserpine ulcer; 30 mg/kg): 33%; Inhibition percentage (Reserpine ulcer; 100 mg/kg): 40%; Inhibition percentage ([5]; 30 mg/kg): 49%; Inhibition percentage ([5]; 100 mg/kg): 78%; Potency ratio [5]: 5.1; ED50 [5]: 32 mg/kg"
"Cc1cc(CSCCNC(=C[N+](=O)[O-])NCC(O)c2cccc(Br)c2)sc1CN(C)C (stereo not shown) [compound 32, N-[2-(3-bromophenyl)-2-hydroxyethyl]-N'-{2-[[5-(dimethylamino)methyl-4-methyl-2-thienyl]methylthio]ethyl}-2-nitro-1,1-ethenediamine]",–,–,–,0.3,> 220,–,–,–,–,15.2,1.81,24,–,38,55,2.15,inhibition in vivo at 3 mg/kg (Indomethacin ulcer; [6]): 72%; inhibition in vivo at 1.5 mg/kg (gastric acid secretion [2]; 1.5 mg/kg): 60%
"CN(C)Cc1ccc(CSCCNC(=C[N+](=O)[O-])NCC(O)c2ccccc2F)o1 (stereo not shown) [compound 4, N-{2-[[5-(dimethylamino)methyl-2-furyl]methylthio]ethyl}-N'-[2-(2-fluorophenyl)-2-hydroxyethyl]-2-nitro-1,1-ethenediamine]",14.9,6.65,75,0.04,220,–,–,–,–,–,–,–,–,–,–,–,–
